Test results published in US8648066B2 (Exelixis, Inc., priority 2009, dated 2014).

Target: mTOR/GbL/Raptor (mTORC1) (Homo sapiens, UniProt P42345)
Test: mTOR/GbL/Raptor (mTORC1) ELISA assay
Assay type: biochemical
Conditions: phosphorylation of 4E-BP1; 0.2 nM mTORC1, 10 μM ATP; read-out: IC50 in this assay (mTORC1 ELISA)
In short: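 ELISA read-out: phospho-4E-BP1 captured on Ni-chelate plates and detected with anti-phospho antibody plus HRP-anti-IgG luminescence. The kinase step ran 120 min at ambient temperature with 0.2 nM human mTORC1, 10 µM ATP, 50 nM His-4E-BP1, 10 mM MnCl2, pH 7.2 HEPES.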

| Structure (SMILES) | IC50 [nM] |
| --- | --- |
| COc1cc2c(N3CCOc4ccc(-c5ccc6nc(C)[nH]c6c5)cc4C3)ncnc2c(OC)c1OC [Example 57, 7-(2-methyl-1H-benzimidazol-6-yl)-4-[6,7,8-tris(methyloxy)quinazolin-4-tris(methyloxy)quinazolin-4-yl]-2,3,4,5-tetrahydro-1,4-benzoxazepine] | ≥ 2000 |
| Cc1ncnc(N2CCOc3ccc(-c4cnc(N)cn4)cc3C2)c1Cc1ccc(F)cc1 [Example 151, 5-(4-{5-[(4-fluorophenyl)methyl]-6-methylpyrimidin-4-yl}-2,3,4,5-tetrahydro-1,4-benzoxazepin-7-yl)pyrazin-2-amine] | 50 to 250 |
| Cc1nc2ccc(-c3ccc4c(c3)CN(c3ncnc5c3CC(C)(C)CC5)CCO4)cc2[nH]1 [Example 65, 4-(6,6-dimethyl-5,6,7,8-tetrahydroquinazolin-4-yl)-7-(2-methyl-1H-benzimidazol-6-yl)-2,3,4,5-tetrahydro-1,4-benzoxazepine] | ≤ 10 |
| COc1cc2ncnc(N3CCOc4ccc(-c5ccc6nc(C)[nH]c6c5)cc4C3)c2cc1Cl [Example 38, 4-[6-chloro-7-(methyloxy)quinazolin-4-yl]-7-(2-methyl-1H-benzimidazol-6-yl)-2,3,4,5-tetrahydro-1,4-benzoxazepine] | 10 to 50 |
| COc1ccc2c(N3CCOc4ccc(-c5ccc6[nH]ncc6c5)cc4C3)nc(C)nc2c1 [Example 274, 7-(1H-indazol-5-yl)-4-[2-methyl-7-(methyloxy)quinazolin-4-yl]-2,3,4,5-tetrahydro-1,4-benzoxazepine] | ≥ 2000 |
| CC1(C)CCc2ncnc(N3CCOc4ccc(-c5cnc(N)c(S(=O)(=O)NCC6CCNCC6)c5)cc4C3)c2C1 [Example 378, 2-amino-5-[4-(6,6-dimethyl-5,6,7,8-tetrahydroquinazolin-4-yl)-2,3,4,5-tetrahydro-1,4-benzoxazepin-7-yl]-N-(piperidin-4-ylmethyl)pyridine-3-sulfonamide] | 50 to 250 |
| c1ccc2c(N3CCOc4ccc(-c5cn[nH]c5)cc4C3)ccnc2c1 [Example 137, 7-(1H-pyrazol-4-yl)-4-quinolin-4-yl-2,3,4,5-tetrahydro-1,4-benzoxazepine] | 1000 to 2000 |
| CC1(C)CCc2ncnc(N3CCOc4ccc(-c5cnc(N)c(S(=O)(=O)N[C@H]6CCNC6)c5)cc4C3)c2C1 [Example 390] | 10 to 50 |
| Cc1nc2ccc(-c3ccc4c(c3)CN(c3ncnc(C)c3Cc3ccc(Cl)c(N(C)C)c3)CCO4)cc2[nH]1 [Example 93, 2-chloro-N,N-dimethyl-5-({4-methyl-6-[7-(2-methyl-1H-benzimidazol-6-yl)-2,3-dihydro-1,4-benzoxazepin-4(5H)-yl]pyrimidin-5-yl}methyl)aniline] | ≤ 10 |
| COc1ccc(-c2ccc3c(c2)CN(c2nc(CN(C)C)nc4c2CC(C)(C)CC4)CCO3)cc1OC [Example 323, 1-(4-{7-[3,4-bis(methyloxy)phenyl]-2,3-dihydro-1,4-benzoxazepin-4(5H)-yl}-6,6-dimethyl-5,6,7,8-tetrahydroquinazolin-2-yl)-N,N-dimethylmethanamine] | 250 to 1000 |

Other lines, results leading:

| IC50 [nM] | Structure (SMILES) |
| --- | --- |
| ≥ 2000 | CC1(C)CCc2ncnc(N3CCOc4ccc(-c5cnc(OCc6ccccc6)c(NS(C)(=O)=O)c5)cc4C3)c2C1 [Example 631, N-{5-[4-(6,6-dimethyl-5,6,7,8-tetrahydroquinazolin-4-yl)-2,3,4,5-tetrahydro-1,4-benzoxazepin-7-yl]-2-[(phenylmethyl)oxy]pyridin-3-yl}methanesulfonamide] |
| 50 to 250 | CC1(C)CCc2ncnc(N3CCOc4ccc(-c5cnc(C(N)=O)c(N)c5)cc4C3)c2C1 [Example 457, 3-amino-5-[4-(6,6-dimethyl-5,6,7,8-tetrahydroquinazolin-4-yl)-2,3,4,5-tetrahydro-1,4-benzoxazepin-7-yl]pyridine-2-carboxamide] |
| 10 to 50 | Cc1nc(CN(C)C)nc(N2CCOc3ccc(-c4cnc5sc(N)nc5c4)cc3C2)c1-c1ccccc1 [Example 682, 6-(4-{2-[(dimethylamino)methyl]-6-methyl-5-phenylpyrimidin-4-yl}-2,3,4,5-tetrahydro-1,4-benzoxazepin-7-yl)[1,3]thiazolo[5,4-b]pyridin-2-amine] |
| ≥ 2000 | Cc1nc2ccc(-c3ccc4c(c3)CN(c3nc(CN(C)C)nc(C)c3C)CCO4)cc2[nH]1 [Example 672, 1-{4,5-dimethyl-6-[7-(2-methyl-1H-benzimidazol-6-yl)-2,3-dihydro-1,4-benzoxazepin-4(5H)-yl]pyrimidin-2-yl}-N,N-dimethylmethanamine] |
| 50 to 250 | COCCNS(=O)(=O)c1cc(-c2ccc3c(c2)CN(c2ncnc4c2CC(C)(C)CC4)CCO3)cnc1N [Example 392, 2-amino-5-[4-(6,6-dimethyl-5,6,7,8-tetrahydroquinazolin-4-yl)-2,3,4,5-tetrahydro-1,4-benzoxazepin-7-yl]-N-[2-(methyloxy)ethyl]pyridine-3-sulfonamide] |
| ≥ 2000 | COc1ccc2c(N3CCOc4ccc(-c5ccc(NC(C)=O)cc5)cc4C3)nc(C)nc2c1 [Example 609, N-(4-{4-[2-methyl-7-(methyloxy)quinazolin-4-yl]-2,3,4,5-tetrahydro-1,4-benzoxazepin-7-yl}phenyl)acetamide] |
| 10 to 50 | CC[C@H]1CCc2c(nc(C)nc2N2CCOc3ccc(-c4cnc(N)c(S(=O)(=O)N5CCC(C)(N)C5)c4)cc3C2)C1 (stereo partly drawn) [Example 441, 3-[(3-amino-3-methylpyrrolidin-1-yl)sulfonyl]-5-{4-[(7S)-7-ethyl-2-methyl-5,6,7,8-tetrahydroquinazolin-4-yl]-2,3,4,5-tetrahydro-1,4-benzoxazepin-7-yl}pyridin-2-amine] |
| 250 to 1000 | Cc1nc2ncc(-c3ccc4c(c3)CN(c3ncnc(N5CCN(C)CC5)c3C)CCO4)cc2[nH]1 [Example 563, 7-(2-methyl-1H-imidazo[4,5-b]pyridin-6-yl)-4-[5-methyl-6-(4-methylpiperazin-1-yl)pyrimidin-4-yl]-2,3,4,5-tetrahydro-1,4-benzoxazepine] |
| 50 to 250 | Cc1nc2ncc(-c3ccc4c(c3)CN(c3ncnc5c3CC[C@H](C)C5)CCO4)cc2[nH]1 [Example 560, 7-(2-methyl-1H-imidazo[4,5-b]pyridin-6-yl)-4-[(7S)-7-methyl-5,6,7,8-tetrahydroquinazolin-4-yl]-2,3,4,5-tetrahydro-1,4-benzoxazepine] |
| 10 to 50 | COc1ccc2c(N3CCOc4ccc(-c5cnc(Cl)c(NS(C)(=O)=O)c5)cc4C3)ncnc2c1 [Example 608, N-(2-chloro-5-{4-[7-(methyloxy)quinazolin-4-yl]-2,3,4,5-tetrahydro-1,4-benzoxazepin-7-yl}pyridin-3-yl)methanesulfonamide] |
| 50 to 250 | CC1(C)CCc2ncnc(N3CCOc4ccc(-c5cnc(N)c(S(=O)(=O)N6CC7CNCC7C6)c5)cc4C3)c2C1 (stereo not shown) [Example 511, 5-[4-(6,6-dimethyl-5,6,7,8-tetrahydroquinazolin-4-yl)-2,3,4,5-tetrahydro-1,4-benzoxazepin-7-yl]-3-(hexahydropyrrolo[3,4-c]pyrrol-2(1H)-ylsulfonyl)pyridin-2-amine] |
| 10 to 50 | COc1ncc(-c2ccc3c(c2)CN(c2ncnc4c2CC(C)(C)CC4)CCO3)cc1NS(C)(=O)=O [Example 628, N-{5-[4-(6,6-dimethyl-5,6,7,8-tetrahydroquinazolin-4-yl)-2,3,4,5-tetrahydro-1,4-benzoxazepin-7-yl]-2-(methyloxy)pyridin-3-yl}methanesulfonamide] |
